Measurements: patent US5300629A, “Bactericidal and/or bacteriostatic peptides isolated from hemolymph of honeybees” (Plant Genetic Systems, N.V., priority 1987, dated 1994)
Values after ≈ are worked out from the molar mass of the structure shown. Where a SMILES comes first, the peptide text is derived from it.

Experiments:
Format in all cases: cell-based
[1] = system: Pseudomonas syringae pv. maculicola NCPPB 1776; assay: Minimal inhibitory concentration in liquid culture; conditions: 200 μl rich medium, 10^4 log-phase bacteria
[2] = system: Pseudomonas syringae pv. tabaci NCPPB 1237; assay: Inhibition zone assay; conditions: * synthetic ApidIa and heattreated immune lymph instead of Bee6 and native immune lymph
[3] = system: protoplasts derived from Lactobacillus sp; assay: Protoplast regeneration, agar diffusion assay; conditions: Lactobacillus protoplasts on RM MRS medium, 4 μg/well
Method: Protoplasts were made using lysozyme concentrations ranging between 0 and 5 mg/ml and then incubated for 1 hour in the presence of Apid Ia (concentrations ranging between 0-10 μg/ml) . Cells were pelleted, resuspended and plated out on RM MRS. To estimate the ratio of protoplasts/normal cells, controls were plated out on MRS without the stabilizing sucrose. This prevented the regenerating of the protoplasts and enabled the deduction of the number of normal cells. To evaluate the regeneration capability of the said protoplasts in the presence of Apid Ia an agar diffusion assay was performed : the protoplasts were applied on RM MRS medium, wells were made and filled up with an apidaecin solution (4 μg/well).

E. coli NCTC 9001 [4] = assay: Bactericidal activity, method not stated; conditions: lyophilized apidaecins resuspended in PBS
[5] = system: Salmonella typhimurium ATCC 23565; assay: Minimal inhibitory concentration in liquid culture; conditions: 200 μl rich medium, 10^4 log-phase bacteria
[6] = system: Pseudomonas syringae pv. maculicola NCPPB 1776; assay: Inhibition zone assay; conditions: * synthetic ApidIa and heattreated immune lymph instead of Bee6 and native immune lymph
[7] = system: Yersinia enterocolitica PGS C-1106; assay: Inhibition zone assay; conditions: * synthetic ApidIa and heattreated immune lymph instead of Bee6 and native immune lymph
[8] = system: Escherichia coli NCTC 9001; assay: Minimal inhibitory concentration in liquid culture; conditions: 200 μl rich medium, 10^4 log-phase bacteria
[9] = system: Rhizobium meliloti ZB 314; assay: Minimal inhibitory concentration in liquid culture; conditions: 200 μl rich medium, 10^4 log-phase bacteria
Salmonella Newport CD 94 = assay: Minimal inhibitory concentration in liquid culture; conditions: 200 μl rich medium, 10^4 log-phase bacteria
[10] = system: Pseudomonas solanacearum ATCC 11696; conditions: 200 μl rich medium, 10^4 log-phase bacteria
E. coli NCTC 9001 [11] = conditions: E. coli NCTC 9001; 4 μg/well
Method: Whole lymph or purified components, resuspended in PBS to a final volume equal to the starting material (heated lymph), was applied in 3 mm wells on agar plates seeded with the test organisms. Antibacterial activity was determined by measuring the growth-inhibition zones (in mm).
Test conditions: agar inhibition zone obtained with 10 namomole apidaecin, resuspended in 20 μl H2 O/well.

[12] = system: Bacillus megaterium QB 1551; assay: Minimal inhibitory concentration in liquid culture; conditions: 200 μl rich medium, 10^4 log-phase bacteria, + = no inhibition at maximal value
[13] = system: Pseudomonas solanacearum ATCC 11696; set-up: key: --: "-" means that no inhibition has been found; conditions: * synthetic ApidIa and heattreated immune lymph instead of Bee6 and native immune lymph
[14] = system: Xanthomonas campestris pv. campestris A 902; assay: Minimal inhibitory concentration in liquid culture; conditions: 200 μl rich medium, 10^4 log-phase bacteria, + = no inhibition at maximal value
[15] = system: Erwinia carotovora var atroseptica LMG 2385; assay: Minimal inhibitory concentration in liquid culture; conditions: 200 μl rich medium, 10^4 log-phase bacteria
[16] = system: Pseudomonas syringae pv. tomato NCPPB 1106; assay: Minimal inhibitory concentration in liquid culture; conditions: 200 μl rich medium, 10^4 log-phase bacteria
[17] = system: Pseudomonas syringae pv. tomato NCPPB 1106; assay: Inhibition zone assay; conditions: * synthetic ApidIa and heattreated immune lymph instead of Bee6 and native immune lymph
[18] = system: Agrobactierium tumefaciens DSM 3129; assay: Minimal inhibitory concentration in liquid culture; conditions: 200 μl rich medium, 10^4 log-phase bacteria
[19] = system: Citrobacter freundii ATCC 8090; assay: Minimal inhibitory concentration in liquid culture; conditions: 200 μl rich medium, 10^4 log-phase bacteria
[20] = system: Pseudomonas syringae pv. tabaci NCPPB 1237; assay: Minimal inhibitory concentration in liquid culture; conditions: 200 μl rich medium, 10^4 log-phase bacteria
[21] = system: Erwinia salicis NCPPB 2530; assay: Minimal inhibitory concentration in liquid culture; conditions: 200 μl rich medium, 10^4 log-phase bacteria
[22] = system: Xanthomonas campestris pv. campestris A 902; assay: Inhibition zone assay; set-up: key: --: "-" means that no inhibition has been found; conditions: * synthetic ApidIa and heattreated immune lymph instead of Bee6 and native immune lymph
[23] = system: Erwinia carotovora var carotovora NCPPB 312; assay: Minimal inhibitory concentration in liquid culture; conditions: 200 μl rich medium, 10^4 log-phase bacteria
[24] = system: Corynebacterium insidiosum NCPPB 1109; assay: Minimal inhibitory concentration in liquid culture; conditions: 200 μl rich medium, 10^4 log-phase bacteria
Method: (§1) In addition the exact concentration was determined precisely by amino-acid analysis and an equal sample of natural Bee 6b was prepared, allowing to compare the bactericidal activity of both natural and synthetic apidaecins by means of growth inhibition assays in liquid cultures (see mat & Meth.). The minimal inhibitory concentrations (μg/ml) were determined in liquid culture : 200 μl of a rich medium (trypticase soy broth or nutrient broth) was inoculated with 10^4 log-phase bacteria. Peptide concentrations ranged between 0 and 200 μg/ml. The values express μg/ml; when no inhibition was noticed the maximal values are given (+200 μg/ml or +50 μg/ml). All peptides were chemically synthesized, except for bee 6b which is purified from bee lymph.

[25] = system: Corynebacterium michiganense pv. michiganense NCPPB 1573; assay: Minimal inhibitory concentration in liquid culture; conditions: 200 μl rich medium, 10^4 log-phase bacteria, + = no inhibition at maximal value
Method: as §1

Shigella flexneri CP 87 = assay: Minimal inhibitory concentration in liquid culture; conditions: 200 μl rich medium, 10^4 log-phase bacteria
Method: as §1

[26] = system: Xanthomonas campestris pv. vesicatoria LMG 905; assay: Minimal inhibitory concentration in liquid culture; conditions: 200 μl rich medium, 10^4 log-phase bacteria, + = no inhibition at maximal value
Method: as §1

CC[C@H](C)[C@H](NC(=O)[C@H](CCCNC(=N)N)NC(=O)[C@@H]1CCCN1C(=O)[C@H](Cc1c[nH]cn1)NC(=O)[C@@H]1CCCN1C(=O)[C@@H]1CCCN1C(=O)[C@H](CCCNC(=N)N)NC(=O)[C@@H]1CCCN1C(=O)[C@H](CCC(N)=O)NC(=O)[C@@H]1CCCN1C(=O)[C@@H](NC(=O)[C@H](Cc1ccc(O)cc1)NC(=O)[C@@H](NC(=O)[C@@H]1CCCN1C(=O)[C@H](CCCNC(=N)N)NC(=O)[C@H](CC(N)=O)NC(=O)[C@H](CC(N)=O)NC(=O)CN)C(C)C)[C@@H](C)CC)C(=O)O [Apid Ia] (H-GNNRPVYIPQPRPPHPRI-OH)
minimal inhibitory concentration [1]: 0.5 µg/mL (≈ 0.237 µM) | diameter of growth-inhibition zone [2]: 7 mm | inhibition zone, regeneration of protoplasts [3]: No inhibition zone was noticed | bactericidal activity (E. coli NCTC 9001 [4]): possessed a bactericidal activity | minimal inhibitory concentration [5]: 0.1 µg/mL (≈ 0.0474 µM) | diameter of growth-inhibition zone [6]: 8 mm | diameter of growth-inhibition zone [7]: 9 mm | minimal inhibitory concentration [8]: 0.1 µg/mL (≈ 0.0474 µM) | minimal inhibitory concentration [9]: 0.1 µg/mL (≈ 0.0474 µM) | minimal inhibitory concentration (Salmonella Newport CD 94): 0.2 µg/mL (≈ 0.0949 µM) | minimal inhibitory concentration [10]: 25 µg/mL (≈ 11.9 µM) | inhibition zone, positive control of the protoplast test (E. coli NCTC 9001 [11]): clear inhibition zone | minimal inhibitory concentration [12]: 150 µg/mL | diameter of growth-inhibition zone [13]: -- | minimal inhibitory concentration [14]: > 50 µg/mL | minimal inhibitory concentration [15]: 1 µg/mL (≈ 0.474 µM) | minimal inhibitory concentration [16]: 0.2 µg/mL (≈ 0.0949 µM) | diameter of growth-inhibition zone [17]: 9 mm | minimal inhibitory concentration [18]: 0.2 µg/mL (≈ 0.0949 µM) | minimal inhibitory concentration [19]: 0.15 µg/mL (≈ 0.0711 µM) | minimal inhibitory concentration [20]: 0.5 µg/mL (≈ 0.237 µM) | minimal inhibitory concentration [21]: 0.02 µg/mL (≈ 0.00949 µM) | diameter of growth-inhibition zone [22]: -- | minimal inhibitory concentration [23]: 1 µg/mL (≈ 0.474 µM) | minimal inhibitory concentration [24]: 50 µg/mL (≈ 23.7 µM) | minimal inhibitory concentration [25]: > 50 µg/mL | minimal inhibitory concentration (Shigella flexneri CP 87): 0.1 µg/mL (≈ 0.0474 µM) | minimal inhibitory concentration [26]: > 50 µg/mL
